Results published in patent publication US8034795B2, “Taxanes covalently bounded to hyaluronic acid or hyaluronic acid derivatives” (Fidia Farmaceutici S.p.A., priority 2002, dated 2011).

Columns and labels:
[1] = test system: MCF-7 human breast cancer cell line; assay: In vitro cytotoxicity, MTT test, MCF-7; type: cell-based; details: MCF7, 72 h, read-out: IC50 (concentration of drug necessary to inhibit cell growth by 50%)
Procedure: (§1) Four cell lines of human breast cancer were used.
(§2) 1) the test cell line is plated at a concentration of 3,000 cells per well, on a flat-bottomed, 96-well plate;
(§3) 2) 24 hours later, the cells are supplemented with the test solutions suitably diluted in culture medium;
(§4) This is possible because mitochondrial dehydrogenase is able to reduce the tetrazolium salts (yellow) into blue formazan crystals. The greater or lesser intensity of colour is assessed by spectrophotometry (Dezinot, F. et al., J. Immunol. Methods, 1986, 22 (89): 271-277).

[2] = test system: human ovary adenocarcinoma cells, OVCAR-3 cells; assay: Survival of nude mice after intraperitoneal implant of OVCAR-3 neoplastic cells; type: in vivo, immunodepressed nude mice (Athymic CD-1); details: 3 intraperitoneal doses (days 6, 13, 20): 20 mg/kg Taxol or 125 mg/kg HYTAD; 5 animals per group
Description: For this experiment, we used human ovary adenocarcinoma cells, OVCAR-3 cells, in immunodepressed nude mice belonging to the Athymic CD-1 species.
Each mouse was inoculated by the intraperitoneal route with 5×10^6 cancer cells.
The molecular weight of the HA used for synthesis of this new drug was 200,000 Da (see Example 7 for details of its preparation). Five animals were used for this drug too.
Treated animals: 10 animals were first inoculated with OVCAR-3 cells.
The survival curve was calculated from the date of intervention to the 92nd day after inoculation of the cancer cells into the peritoneum.

[3] = test system: MDA-MB-231 human breast cancer cell line; assay: In vitro cytotoxicity, MTT test, MDA-MB-231; type: cell-based; details: MDA-MB-231, 72 h, read-out: IC50 (concentration of drug necessary to inhibit cell growth by 50%)
Procedure: as §1, §2, §3, §4

[4] = intravenous infusion of paclitaxel-Cremophor EL in spite of pre-medication; cited from earlier work
[5] = test system: SKBR-3 human breast cancer cell line; assay: In vitro cytotoxicity, MTT test, SKBR-3; type: cell-based; details: SK-BR-3, 72 h, read-out: IC50 (concentration of drug necessary to inhibit cell growth by 50%)
Procedure: as §1, §2, §3, §4

CC(=O)O[C@H]1C(=O)[C@@]2(C)[C@H]([C@H](OC(=O)c3ccccc3)[C@]3(O)C[C@H](OC(=O)[C@H](O)[C@@H](NC(=O)c4ccccc4)c4ccccc4)C(C)=C1C3(C)C)[C@]1(OC(C)=O)CO[C@@H]1C[C@@H]2O [Taxol ®, paclitaxel]
IC50 [1]: 3.5 nM | animals that had died on the 92nd day after intervention [2]: none | IC50 [3]: 0.35 nM | patients who experience more or less severe adverse reactions [4]: up to 40% | IC50 [5]: 0.23 nM
